Measured values taken from PMC2774621, “Homogenous Fluorescent Assays for Characterizing Small-Molecule Activators of AMP-Activated Protein Kinase (AMPK)” (Current Chemical Genomics, 2008).

Columns and labels:
[1] = tested on: rat-liver or recombinant AMPK (α1β1γ1); parameters: method as in PMID 16753576; settings: read-out: EC50 of AMPK activation; cited from earlier work
AMPK α2β1γ1 [2] = biological target: T1, AMPK α2β1γ1 (Homo sapiens, UniProt P54619+P54646); test: Radiometric kinase assay (SAMS peptide, 32P-ATP); format: biochemical
T1 construct: made in house; host or cells: Sf9 insect cells (baculovirus)
Experimental: (§1) Kinase reactions were performed at room temperature in 50 mM HEPES pH 7.5, 0.01% BRIJ-35, 10 mM MgCl2, and 1 mM EGTA in a 30 µL assay volume in 96-well plates. For the inhibition experiments, a 2-fold dilution series of inhibitor stock solutions was first prepared in 100% DMSO at 100-fold concentration of inhibitor to be used in the assay. Prior to the assay, 4 µL of each inhibitor concentration was further diluted to 100 µL in assay buffer to prepare a working stock of inhibitor in 4% DMSO at 4-fold the final assay concentration. For the activation experiments, activators were prepared in 100% H2O at 4-fold the concentration to be tested in the assay. Assays were performed as follows: 7.5 µL of the inhibitor or activator working stock was added to a 17.5 µL solution of assay buffer, substrate and [^32P]-ATP (0.5 µCi/well), followed by 5 µL of enzyme to start the assay. All assays were performed in triplicate. The final concentration of SAMS peptide substrate in the reaction was 200 µM. AMPK α1β1γ1 was used at 334 ng/mL (1.8 nM) in the inhibition experiments and 83.3 ng/mL (0.44 nM) in the activation experiments, at an ATP concentration of 35 µM. AMPK α2β1γ1 was used at 1670 ng/mL (8.9 nM) in the inhibition experiments and 267 ng/mL (1.4 nM) in the activation experiments, at an ATP concentration of 65 µM. After 10 minutes, 20 µL of the reaction was spotted onto a p81 filter. The filters were washed three times in 0.5% phosphoric acid, and twice in distilled water before being counted in Beckman Coulter Ready Safe liquid scintillation cocktail using a Beckman Coulter LS6500 Multipurpose Scintillation Counter. Scintillation Counter output (cpm) was used to calculate specific activity (nmole / (min•mg)).
(§2) Data analysis and curve-fitting was performed using GraphPad Prism software (GraphPad Software, Inc, San Diego CA).

AMPK α1β1γ1 = biological target: T2, AMPK α1β1γ1 (Homo sapiens, UniProt P54619+Q13131); test: TR-FRET activity assay (LanthaScreen, fluorescein-CREBtide); format: biochemical; settings: ATP 50 µM, substrate 400 nM, read-out: Activator EC50
T2 construct: made in house; host or cells: Sf9 insect cells (baculovirus)
Experimental: (§3) Activators and inhibitors were prepared as described for the radiometric assay. Assays were performed as follows: 2.5 µL of the inhibitor or activator working stock was added to a 5 µL solution of kinase and substrate, followed by 2.5 µL of ATP to start the assay. Assays were performed in quadruplicate. […] After one hour, a 10 µL solution of EDTA and terbium labeled phospho-specific antibody in 20 mM Tris, pH 7.5 and 0.01% NP-40 was added to a final well volume of 20 µL, a final antibody concentration of 1 nM, and a final EDTA concentration of 10 mM. After a 30 minute incubation at room temperature the assay plate was read on a BMG Pherastar plate reader using the LanthaScreen™ filter module. The TR-FRET ratio was calculated as the intensity of the acceptor signal divided by the intensity of the donor signal.
as §2

AMPK α2β1γ1 [3] = biological target: T1, AMPK α2β1γ1; test: as above; format: biochemical; settings: TR-FRET, ATP 150 µM, substrate 400 nM; read-out: Activator EC50
Experimental: as §3, §2

AMPK α1β1γ1 and α2β1γ1 [4] = biological target: AMPK α1β1γ1 and α2β1γ1 (Homo sapiens, UniProt P54619+P54646); test: Summary statements across all assay formats (radiometric, TR-FRET, FRET, CHEF); format: biochemical; settings: read-out: half-maximal stimulatory concentration; all assay formats
Experimental: as §1
(§4) Kinase reactions were performed in a 10 µL assay volume at room temperature in 384-well low volume plates (Corning model 3676) using the same assay buffer as the radiometric assay. Activators and inhibitors were prepared as described for the radiometric assay. Assays were performed as follows: 2.5 µL of the inhibitor or activator working stock was added to a 5 µL solution of kinase and substrate, followed by 2.5 µL of ATP to start the assay. Assays were performed in quadruplicate. The final concentration of fluorescein-labeled CREBtide peptide substrate (derived from residues 123-136 of CREB protein) in the reaction was 400 nM. AMPK α1β1γ1 was used at 600 ng/mL (3.1 nM) in the inhibition experiments and 200 ng/mL (1.1 nM) in the activation experiments, at an ATP concentration of 50 µM. AMPK α2β1γ1 was used at 5 µg/mL (26.5 nM) in the inhibition experiments and 600 ng/mL (3.2 nM) in the activation experiments, at an ATP concentration of 150 µM. After one hour, a 10 µL solution of EDTA and terbium labeled phospho-specific antibody in 20 mM Tris, pH 7.5 and 0.01% NP-40 was added to a final well volume of 20 µL, a final antibody concentration of 1 nM, and a final EDTA concentration of 10 mM. After a 30 minute incubation at room temperature the assay plate was read on a BMG Pherastar plate reader using the LanthaScreen™ filter module. The TR-FRET ratio was calculated as the intensity of the acceptor signal divided by the intensity of the donor signal.
(§5) Kinase reactions were performed in a 10 µL assay volume at room temperature in 384-well low volume plates (Corning model 3676) using the same assay buffer as the radiometric assay. Inhibitors and activators were prepared as described for the radiometric assays. Assays were performed as follows: 2.5 µL of the inhibitor or activator working stock was added to a 5 µL solution of kinase and substrate, followed by 2.5 µL of ATP to start the assay. All assays were performed in quadruplicate. The final concentration of Z’-LYTE™ S/T23 peptide substrate in the reaction was 2 µM. AMPK α1β1γ1 was used at 79 ng/mL (0.42 nM) in the inhibition experiments and 41 ng/mL (0.22 nM) in the activation experiments, at an ATP concentration of 50 µM. […]

AMPK α1β1γ1 and α2β1γ1 [5] = biological target: T3, AMPK α1β1γ1 and α2β1γ1 (Homo sapiens, UniProt P54619+P54646+Q9Y478); test: as above; format: biochemical; settings: α2β1γ1 isoform
T3 construct: made in house; host or cells: Sf9 insect cells (baculovirus)
Experimental: as §1, §4, §5

AMPK α1β1γ1 and α2β1γ1 [6] = biological target: T4, AMPK α1β1γ1 and α2β1γ1 (Homo sapiens, UniProt P54619+Q13131+Q9Y478); test: as above; format: biochemical; settings: α1β1γ1 isoform, any formats
T4 construct: made in house; host or cells: Sf9 insect cells (baculovirus)
Experimental: as §1, §4, §5

[7] = tested on: partially purified human AMPK; parameters: method as in PMID 8185610; settings: cited from earlier work
[8] = tested on: partially purified rat AMPK; parameters: method as in PMID 8185610; settings: cited from earlier work

T1 sequence (P54646 whole entry): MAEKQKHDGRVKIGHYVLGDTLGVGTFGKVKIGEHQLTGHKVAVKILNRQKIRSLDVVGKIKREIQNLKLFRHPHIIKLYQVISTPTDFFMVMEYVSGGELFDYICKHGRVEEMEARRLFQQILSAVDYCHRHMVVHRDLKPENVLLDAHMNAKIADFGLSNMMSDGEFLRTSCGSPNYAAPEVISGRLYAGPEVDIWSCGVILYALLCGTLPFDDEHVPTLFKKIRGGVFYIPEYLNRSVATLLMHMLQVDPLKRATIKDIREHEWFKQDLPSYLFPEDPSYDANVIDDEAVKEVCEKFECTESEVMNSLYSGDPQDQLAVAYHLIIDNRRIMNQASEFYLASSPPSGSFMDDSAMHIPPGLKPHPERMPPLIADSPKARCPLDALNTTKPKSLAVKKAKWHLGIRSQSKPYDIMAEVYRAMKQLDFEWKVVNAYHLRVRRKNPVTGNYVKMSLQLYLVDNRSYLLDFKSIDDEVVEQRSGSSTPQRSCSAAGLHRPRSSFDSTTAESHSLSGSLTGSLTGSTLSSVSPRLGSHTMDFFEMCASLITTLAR
T1 sequence (Q9Y478 whole entry partner): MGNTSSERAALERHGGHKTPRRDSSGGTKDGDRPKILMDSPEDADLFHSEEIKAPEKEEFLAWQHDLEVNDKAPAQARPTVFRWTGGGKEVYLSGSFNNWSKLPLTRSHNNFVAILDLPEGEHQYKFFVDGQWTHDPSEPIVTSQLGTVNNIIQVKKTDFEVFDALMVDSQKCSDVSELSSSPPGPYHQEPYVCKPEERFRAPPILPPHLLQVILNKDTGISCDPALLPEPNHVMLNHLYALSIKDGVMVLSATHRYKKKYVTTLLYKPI
T1 sequence (P54619 whole entry): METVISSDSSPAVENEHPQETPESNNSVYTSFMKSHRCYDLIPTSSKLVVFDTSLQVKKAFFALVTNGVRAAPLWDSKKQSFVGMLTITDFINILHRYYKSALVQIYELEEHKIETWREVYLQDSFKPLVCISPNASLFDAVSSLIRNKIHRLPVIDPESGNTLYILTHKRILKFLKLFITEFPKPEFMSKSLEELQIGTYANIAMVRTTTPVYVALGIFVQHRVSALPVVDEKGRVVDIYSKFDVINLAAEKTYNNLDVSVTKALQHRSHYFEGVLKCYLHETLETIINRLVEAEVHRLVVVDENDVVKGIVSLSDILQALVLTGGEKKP
Sequence of AMPK α1β1γ1 and α2β1γ1 (Homo sapiens, UniProt P54619+P54646) (P54619 whole entry): as above
Sequence of AMPK α1β1γ1 and α2β1γ1 (Homo sapiens, UniProt P54619+P54646) (P54646 whole entry): as the sequence (P54646 whole entry) above
Sequence of AMPK α1β1γ1 and α2β1γ1 (Homo sapiens, UniProt P54619+P54646) (Q9Y478 whole entry partner): as the sequence (Q9Y478 whole entry partner) above
T4 sequence (Q13131 whole entry, canonical isoform): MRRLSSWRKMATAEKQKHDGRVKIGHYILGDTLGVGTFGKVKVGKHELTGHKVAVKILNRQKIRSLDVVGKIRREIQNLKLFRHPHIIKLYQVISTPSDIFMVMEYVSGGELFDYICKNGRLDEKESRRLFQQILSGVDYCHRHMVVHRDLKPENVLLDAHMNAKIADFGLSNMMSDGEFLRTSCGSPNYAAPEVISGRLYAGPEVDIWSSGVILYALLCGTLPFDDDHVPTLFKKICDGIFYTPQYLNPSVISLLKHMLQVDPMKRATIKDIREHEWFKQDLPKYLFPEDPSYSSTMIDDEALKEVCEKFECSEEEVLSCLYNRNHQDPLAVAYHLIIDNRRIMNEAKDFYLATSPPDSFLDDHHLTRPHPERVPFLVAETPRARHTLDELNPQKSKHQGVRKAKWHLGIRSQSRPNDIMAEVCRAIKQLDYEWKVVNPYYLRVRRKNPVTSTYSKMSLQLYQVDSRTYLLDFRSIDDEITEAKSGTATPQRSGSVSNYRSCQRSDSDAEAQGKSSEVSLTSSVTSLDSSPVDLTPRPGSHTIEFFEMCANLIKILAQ
T4 sequence (Q9Y478 whole entry, canonical isoform): as the sequence (Q9Y478 whole entry partner) above
T4 sequence (P54619 whole entry, canonical isoform): as the sequence (P54619 whole entry) above
T2 sequence (Q13131 whole entry): as the sequence (Q13131 whole entry, canonical isoform) above
T2 sequence (Q9Y478 whole entry partner): as the sequence (Q9Y478 whole entry partner) above
T2 sequence (P54619 whole entry): as the sequence (P54619 whole entry) above
T3 sequence (P54646 whole entry, canonical isoform): as the sequence (P54646 whole entry) above
T3 sequence (Q9Y478 whole entry, canonical isoform): as the sequence (Q9Y478 whole entry partner) above
T3 sequence (P54619 whole entry, canonical isoform): as the sequence (P54619 whole entry) above

Compound | EC50 [1] | EC50 (AMPK α2β1γ1 [2]) | Max. fold-activation (AMPK α2β1γ1 [2]; radiometric, ATP 65 µM, SAMS 200 µM) | EC50 (AMPK α1β1γ1) | EC50 (AMPK α2β1γ1 [3]) | EC50 (AMPK α1β1γ1 and α2β1γ1 [4]) | maximal extent of activation (AMPK α1β1γ1 and α2β1γ1 [5]) | activation before inhibiting kinase activity to below basal levels (AMPK α1β1γ1 and α2β1γ1 [6]) | fold stimulation (maximal extent of activation) [7] | fold stimulation (maximal extent of activation) ([8]; partially purified rat AMPK) | EC50 ([8]; rat AMPK, read-out: half-maximal stimulatory concentration)
N#Cc1c(O)c2c(-c3ccc(-c4ccccc4O)cc3)csc2[nH]c1=O [A-769662] | ~800 nM | – | – | – | – | – | – | – | – | – | –
Nc1ncnc2c1ncn2[C@@H]1O[C@H](COP(N)(=O)O)[C@@H](O)[C@H]1O [APR, adenosine 5′-monophosphoramidate] | – | 194 µM | 1.9 fold | 722 µM | 43 µM | > 50 µM | 2 to 3 fold | negligible activation | 2.25 fold | 1.5 fold | 1900 nM
